# From patent US20210290680A1, “METHODS AND COMPOSITIONS FOR MODULATING CELLULAR AGING” (Dorian Therapeutics, Inc., priority 2019, published 2021)
# Key:
# Format in all cases: cell-based, human
# primary T cells = assay: T cell expansion / proliferation by Trypan Blue cell counts; settings: day 15 post-activation
# Procedure: On Day 0, buffycoats were obtained by a clinical facility, and PBMCs were isolated by density centrifugation using Ficoll™. CD3 enrichment was performed using magnetic beads, PanT cell isolation from Myltenyi Biotec. The T cells were activated with aCD^3/aCD28 Dynabeads (3:1 ratio).
# On Day 2, a first round of transduction was performed with lentivirus. On Day 3, a second round of transduction was performed with lentivirus.
# On Day 6, the beads were removed. On Day 6-8, Flow cytometry sorting was performed with a FACSAria II (BD).
# The cells were cultured in RPMI, 10% FBS, penicillin-streptomycin, and 100IU of IL-2. Cells were plated at a density of 0.3×10^6 cells/ml until day 15, then 0.5×10^6 cells/ml and after day 25 at 1×10^6 cells/ml.
# A short hairpin RNA (shRNA) directed against USP16 (shUSP16) was purchased from Dharmacon. […] Between 0.15 and 0.5×10^6 cells were plated post-sorting with a purity higher than 90% and counted every 2-4 days by Trypan Blue exclusion using Vi-CELL XR cell counter (Beckman Coulter). Proliferation was measured as expansion ratio compared to the initial cell seeding. […]
# A new set of shRNAs were cloned into the pSIH backbone, where the shRNA expression is driven by the H1 promoter. […] Proliferation was measured as fold increased compared to shControl at day 15 post-activation. […]
# USP16 = assay: qPCR of USP16 expression; settings: for downregulation of USP16 (Ctrl vs shRNA): primary T cells, day 15
# From the text: A new set of shRNAs were cloned into the pSIH backbone, where the shRNA expression is driven by the H1 promoter. The vector was also engineered to co-express GFP and Puromycin resistance through a T2A sequence. The new shRNA sequences were: shUSP16 #1 5′-[…]-3′ (SEQ ID NO: 8) and shUSP16 #2 5′-[…]-3′ (SEQ ID NO: 9). Primary T cells were activated as described (Example 3), transduced with a lentivirus encoding either a shUSP16 #1, shUSP16 #2 or a scrambled shRNA (Control) and cells were selected with puromycin at day 6. Between 1 and 1.25×10^6 cells were plated post-puromycin selection with a purity higher than 90% and counted every 2-4 days by Trypan Blue exclusion using Vi-CELL XR cell counter (Beckman Coulter). qPCR was performed to verify downregulation of USP16 expression (FIG. 14A) and the expression of the senescent marker CDKN1A (FIG. 14B) at day 15. Proliferation was measured as fold increased compared to shControl at day 15 post-activation. The experiment was repeated using primary T cells obtained from buffy coats of 3 different healthy donors.
# Primary T cells were activated as described (Example 3). At Day 6 post-activation, dynabeads were removed and T cells electroporated using the Neon Transfection System (ThermoFisher) with a 2.5:1 ratio sgRNA:Cas9. The experiment was performed following the protocol optimized for primary T cell by Synthego (CRISPR Editing Human Primary CD4+ T cells with RNPs using Neon Electroporation Protocol, 2018 version). The sgRNA used are the following: gUSP16 #1 5′-[…]-3′ (SEQ ID NO: 10) and gSynthego that comprises 3 different sgRNAs (gRNA-A: 5′-[…] 3′ (SEQ ID NO: 11); gRNA-B: 5′-[…]-3′ (SEQ ID NO: 12); gRNA-C: 5′-[…]-3′ (SEQ ID NO: 13)). Control T cells, identified as Mock, were electroporated but no Cas9:sgRNA mixture was added. […] At day 15 post-activation, cells were stained for CD4-PE, CD8-BV510, CD62L-Allophycocyanin and CD45RA-APC-Cy7 (Biolegend). Stem cell memory T cells (Tscm) were identified as Sytox^−GFP^+CD45RA^+CD62L^+ and graphed as ratio compared to mock cells (FIG. 22). The experiment was repeated using primary T cells obtained from buffy coats of 2 different healthy donors.
# Primary T cells were activated as described (Example 3), transduced with a lentivirus encoding for either a CD19.CAR or a GD2.CAR co-expressing shUSP16 #1, shUSP16 #2 or a scrambled shRNA (Control). Cells were cultured in IL-2 and sorted between days 6-13 for EGFRt. Cells were plated post-sorting with a purity higher than 85% and counted every 2-4 days by Trypan Blue exclusion using Vi-CELL XR cell counter. Fifteen days post-activation both CD19.CAR and GD2.CAR T cells were collected, and qPCR was performed to verify downregulation of USP16 expression (FIG. 24) (fold change GD2.CAR (n=3): Control vs shUSP #1: 0.35, p<0.0001, and Control vs shUSP16 #2: 0.2452, p<0.0001, fold change CD19.CAR (n=4): Control vs shUSP #1: 0.2891, p<0.0001, and Control vs shUSP16 #2: 0.2566, p<0.0001). Proliferation was measured as fold increase compared to control cells at day 15 (FIG. 25).
# CD69 = assay: Exhaustion marker CD69 by flow cytometry; settings: for CD69%: day 16, n=3; for reduction of exhaustion marker CD69 expression (shCtrl vs shRNA): primary T cells, day 20
# Procedure: Primary T cells were activated as described (Example 3), transduced with a lentivirus encoding either a shUSP16 #1, shUSP16 #2 or a non-targeting shRNA (shCtrl) and cells were selected with puromycin at day 6. At day 20, T cells were stained for CD69-Allophycocyanin (Biolegend) and T cells analyzed by MACSQuant (Miltenyi Biotec) (FIG. 19). Three primary T cell cultures were analyzed.
# Primary T cells were activated as described (Example 3), transduced with a lentivirus encoding for either a CD19.CAR or a GD2.CAR co-expressing shUSP16 #1, shUSP16 #2 or a scrambled shRNA (Control). Cells were cultured in IL-2 and sorted between days 6-13 for EGFRt. At day 16, T cells were stained for exhaustion markers, including CD69.
Substance,"proliferation, fold increased compared to shControl (primary T cells)","USP16 expression, fold change vs Control (USP16; CD19.CAR T cells, day 15, n=4)","USP16 expression, fold change vs Control (USP16; GD2.CAR T cells, day 15, n=3)",downregulation of USP16 (Ctrl vs shRNA) (USP16) [%],CD69% (CD69; CD19.CAR) [%],CD69% (CD69; GD2.CAR) [%],reduction of exhaustion marker CD69 expression (shCtrl vs shRNA) (CD69) [%]
"shUSP16 #2: shRNA targeting USP16, 5′-TATATCAGTTCACCCGTAAT-3′ (SEQ ID NO: 9), pSIH backbone or co-expressed in CAR plasmid",~2.33 folds,0.2566,0.2452,53,27.17,27.8,40
"shUSP16 #1: shRNA targeting USP16, 5′-GACTGTAAGACTGACAATAAA-3′ (SEQ ID NO: 8), pSIH backbone or co-expressed in CAR plasmid",about 1.31 folds,0.2891,0.35,56,13.70,23.05,41
